Measurements published in PubChem BioAssay AID192 (DTP/NCI, 2004).
“And” between values parts separate entries of the source, which are not always exact repeats. Equal entries are not always repeated. Inconclusive results and toxic doses are left out.

System: BDF1 mice, B16 melanoma ip, median survival T/C
Experiment: NCI In Vivo Anticancer Drug Screen. Data for tumor model B16 Melanoma (intraperitoneal) in B6D2F1 (BDF1) mice
Conditions: endpoint: median survival time, higher = longer survival
Procedure, shortened: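 Values are ratios of treated (T) to vehicle-control (C) measurements of survival or tumor size in tumor-bearing mice.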

[1] = dose: 100.0 mg/kg/injection, schedule: Q01DX009 (ip), vehicle: saline with Tween-80
[2] = dose: 200.0 mg/kg/injection, schedule: Q01DX009 (ip), vehicle: saline with Tween-80
[3] = dose: 100.0 mg/kg/injection, schedule: Q01DX009 (ip), vehicle: Klucel (hydroxypropylcellulose) (HPC)
[4] = dose: 25.0 mg/kg/injection, schedule: Q01DX009 (ip), vehicle: Klucel (hydroxypropylcellulose) (HPC)
[5] = dose: 50.0 mg/kg/injection, schedule: Q01DX009 (ip), vehicle: Klucel (hydroxypropylcellulose) (HPC)
[6] = dose: 200.0 mg/kg/injection, schedule: Q01DX009 (ip), vehicle: Klucel (hydroxypropylcellulose) (HPC)
[7] = dose: 12.5 mg/kg/injection, schedule: Q01DX009 (ip), vehicle: saline with Tween-80
[8] = dose: 25.0 mg/kg/injection, schedule: Q01DX009 (ip), vehicle: saline with Tween-80

`NC1c2cc(Cl)ccc2-c2c(Cl)cc(Cl)cc21` (configuration not stated) was tested. Which T/C [1] did it give?
The T/C was 109 % of control.

And the T/C [2]?
The T/C was 111 % of control.

What about the T/C (dose: 400.0 mg/kg/injection, schedule: Q01DX009 (ip), vehicle: saline with Tween-80) of the same compound?
The T/C was 102 % of control.

`CCCCN=[N+]=[N-]` was tested. Which T/C (dose: 25.0 mg/kg/injection, schedule: Q01DX009 (ip), vehicle: water) did it give?
The T/C was 104 % of control.

What about the T/C (dose: 50.0 mg/kg/injection, schedule: Q01DX009 (ip), vehicle: water) of the same compound?
Its T/C is 98 % of control.

And the T/C (dose: 100.0 mg/kg/injection, schedule: Q01DX009 (ip), vehicle: water)?
Its T/C is 100 % of control.

What about the T/C (dose: 200.0 mg/kg/injection, schedule: Q01DX009 (ip), vehicle: water) of the same compound?
The T/C was 98 % of control.

`Cc1cccc(NS(=O)(=O)c2ccccc2)c1C` was tested. Which T/C (dose: 50.0 mg/kg/injection, schedule: Q01DX009 (ip), vehicle: saline with Tween-80) did it give?
Its T/C is 98 % of control.

What about the T/C [3] of the same compound?
Its T/C is 96 % of control.

And the T/C [1]?
The T/C was 98 % of control.

What about the T/C [2] of the same compound?
Its T/C is 97 % of control.

What about the T/C (dose: 400.0 mg/kg/injection, schedule: Q01DX009 (ip), vehicle: Klucel (hydroxypropylcellulose) (HPC)) of the same compound?
The T/C was 88 % of control.

With `Cc1[nH]ccc2c(C)c3nc4ccccc4c3cc12` as the compound, how does the T/C [4] read?
Its T/C is 161 % of control.

How did the T/C [5] turn out when `CSCCCCCCSC` was run?
The T/C was 93 % of control.

And the T/C [3]?
The T/C was 105 % of control.

And the T/C [6]?
The T/C was 106 % of control.

Which results are given for `CC(=O)CC(=O)Nc1ccc2ccccc2c1`?
T/C [4]: 93 % of control; T/C [5]: 90 % of control; T/C [3]: 93 % of control

Which results are given for `CCCCNC(=O)Nc1cc(C)c(C)cc1C`?
T/C (dose: 50.0 mg/kg/injection, schedule: Q01DX009 (ip), vehicle: gum acacia): 95 % of control; T/C (dose: 100.0 mg/kg/injection, schedule: Q01DX009 (ip), vehicle: gum acacia): 99 % of control; T/C (dose: 200.0 mg/kg/injection, schedule: Q01DX009 (ip), vehicle: gum acacia): 91 % of control

For `CCc1ccccc1NC(=O)c1cccc(C(=O)Nc2ccccc2CC)c1`, which T/C [5] is on record?
Its T/C is 102 % of control.

What about the T/C [3] of the same compound?
The T/C was 105 % of control.

What about the T/C [6] of the same compound?
The T/C was 102 % of control.

What does the source list for `CCOC(=O)CCC(NC(=O)c1ccc(NCc2ccc3nc(N)nc(N)c3c2C)cc1)C(=O)OCC` (configuration not stated)?
T/C (dose: 0.01 mg/kg/injection, schedule: Q01DX009 (ip), vehicle: saline + alcohol): 108 % of control; T/C (dose: 0.02 mg/kg/injection, schedule: Q01DX009 (ip), vehicle: saline + alcohol): 102 % of control; T/C (dose: 0.03 mg/kg/injection, schedule: Q01DX009 (ip), vehicle: saline + alcohol): 105 % of control; T/C (dose: 0.06 mg/kg/injection, schedule: Q01DX009 (ip), vehicle: saline + alcohol): 93 % of control; T/C (dose: 0.11 mg/kg/injection, schedule: Q01DX009 (ip), vehicle: saline + alcohol): 91 % of control

`O=C(O)C1=CCC=CC1` was tested. Which T/C (dose: 100.0 mg/kg/injection, schedule: Q04DX003 (ip), vehicle: saline with Tween-80) did it give?
Its T/C is 100 % of control.

And the T/C (dose: 200.0 mg/kg/injection, schedule: Q04DX003 (ip), vehicle: saline with Tween-80)?
The T/C was 103 % of control.

What about the T/C (dose: 400.0 mg/kg/injection, schedule: Q04DX003 (ip), vehicle: saline with Tween-80) of the same compound?
The T/C was 96 % of control.

For `C[C@]12CCC(=O)C=C1CC[C@@H]1[C@@H]2C(=O)C[C@]2(C)C3=CC(=O)O[C@H]3C[C@@H]12`, which T/C [7] is on record?
The T/C was 100 % of control.

What about the T/C [8] of the same compound?
The T/C was 100 % of control.

How did the T/C [1] turn out when `CC(C)CC(NC(=O)c1ccccc1)C(=O)O` (configuration not stated) was run?
The T/C was 97 % of control.

How did the T/C [5] turn out when `C=CCCOC(C)=O` was run?
Its T/C is 100 % of control.

And the T/C [3]?
Its T/C is 108 % of control.

What about the T/C [6] of the same compound?
Its T/C is 108 % of control.

What does the source list for `Fc1cccc(/C=C2/c3cc(Cl)ccc3-c3c(Cl)cc(Cl)cc32)c1`?
T/C (dose: 6.25 mg/kg/injection, schedule: Q01DX009 (ip), vehicle: saline with Tween-80): 90 % of control; T/C [7]: 93 % of control; T/C [8]: 88 % of control

With `CN(C)C=NC1CCC(C(C)(C)C)CC1` (configuration not stated) as the compound, how does the T/C (dose: 6.25 mg/kg/injection, schedule: Q01DX009 (ip), vehicle: Klucel (hydroxypropylcellulose) (HPC)) read?
The T/C was 89 % of control.

What about the T/C (dose: 12.5 mg/kg/injection, schedule: Q01DX009 (ip), vehicle: Klucel (hydroxypropylcellulose) (HPC)) of the same compound?
The T/C was 93 % of control.

What about the T/C [4] of the same compound?
The T/C was 86 % of control.

With `CC(C)Nc1ccc(Nc2ccc(NC(C)C)cc2)cc1` as the compound, how does the T/C (dose: 4.5 mg/kg/injection, schedule: Q01DX009 (ip), vehicle: alcohol) read?
The T/C was 100 % of control.

What about the T/C (dose: 6.75 mg/kg/injection, schedule: Q04DX003 (ip), vehicle: alcohol) of the same compound?
Its T/C is 102 % of control.

And the T/C (dose: 9.0 mg/kg/injection, schedule: Q01DX009 (ip), vehicle: alcohol)?
Its T/C is 92 % of control.

What about the T/C (dose: 13.5 mg/kg/injection, schedule: Q04DX003 (ip), vehicle: alcohol) of the same compound?
The T/C was 92 % of control and 97 % of control.

With `Cc1cc2no[n+]([O-])c2cc1C` as the compound, how does the T/C [5] read?
The T/C was 116 % of control.

And the T/C [3]?
The T/C was 99 % of control.

And the T/C [6]?
Its T/C is 117 % of control.
